In PubChem BioAssay (NCI):
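1) Cells in 96-well plates. 2) Compound, 48 h, 5 concentrations. 3) Linear interpolation between surrounding doses. 4) Unreached endpoint = highest concentration. TGI: concentration producing complete growth inhibition.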 Where a SMILES comes first, the peptide text is derived from it. The star is where a group is joined. Boc = CC(C)(C)OC(=O)*

Assays:
Experiment in all cases: NCI-60 cell line screen, 48 h
[1] = test system: 786-0 renal
[2] = test system: A498 renal
[3] = test system: A549 NSCLC
[4] = test system: ACHN renal
[5] = test system: BT-549 breast
[6] = test system: CCRF-CEM leukemia
[7] = test system: DU-145 prostate
[8] = test system: HCC-2998 colon
[9] = test system: HCT-116 colon
[10] = test system: HL-60(TB) leukemia
[11] = test system: HOP-62 NSCLC
[12] = test system: HT29 colon
[13] = test system: IGROV1 ovarian
[14] = test system: K-562 leukemia
[15] = test system: LOX IMVI melanoma
[16] = test system: M14 melanoma
[17] = test system: MALME-3M melanoma
[18] = test system: MCF7 breast
[19] = test system: MDA-MB-231 breast
[20] = test system: MDA-MB-435
[21] = test system: MDA-N
[22] = test system: MOLT-4 leukemia
[23] = test system: NCI-H226 lung
[24] = test system: NCI-H23 lung
[25] = test system: NCI-H460 lung
[26] = test system: NCI-H522 lung
[27] = test system: OVCAR-3 ovarian
[28] = test system: OVCAR-4 ovarian
[29] = test system: OVCAR-5 ovarian
[30] = test system: OVCAR-8 ovarian
[31] = test system: PC-3 prostate
[32] = test system: RPMI-8226 leukemia
[33] = test system: SF-268 CNS
[34] = test system: SK-MEL-2 melanoma
[35] = test system: SK-MEL-28 melanoma
[36] = test system: SK-MEL-5 melanoma
[37] = test system: SN12C renal
[38] = test system: SNB-19 CNS
[39] = test system: SNB-75 CNS
[40] = test system: SR leukemia
[41] = test system: SW-620 colon
[42] = test system: T-47D breast
[43] = test system: TK-10 renal
[44] = test system: U251 CNS
[45] = test system: UACC-257 melanoma
[46] = test system: UACC-62 melanoma
[47] = test system: UO-31 renal
[48] = test system: CAKI-1 renal
[49] = test system: COLO 205 colon
[50] = test system: EKVX NSCLC
[51] = test system: HCT-15 colon
[52] = test system: HS 578T breast
[53] = test system: KM12 colon
[54] = test system: RXF 393 renal
[55] = test system: SF-295 CNS
[56] = test system: SF-539 CNS

CC(C)(C)OC(=O)NC(Cc1ccc(O)cc1)C(=O)NC(CCCCN)C(=O)O (stereo not drawn) (Boc-Tyr-Lys-OH; configuration not given here)
TGI [1]: > 100 µM
TGI [2]: 92.4 µM
TGI [3]: > 100 µM
TGI [4]: 65.1 µM
TGI [5]: 80.5 µM
TGI [6]: 92.7 µM
TGI [7]: 80.3 µM
TGI [8]: 65.3 µM
TGI [9]: 40.9 µM
TGI [10]: 52.8 µM
TGI [11]: 39 µM
TGI [12]: > 100 µM
TGI [13]: 37.1 µM
TGI [14]: > 100 µM
TGI [15]: 28.2 µM
TGI [16]: 56 µM
TGI [17]: 76.6 µM
TGI [18]: > 100 µM
TGI [19]: 61.8 µM
TGI [20]: > 100 µM
TGI [21]: > 100 µM
TGI [22]: 94.7 µM
TGI [23]: > 100 µM
TGI [24]: 48.6 µM
TGI [25]: 66.2 µM
TGI [26]: 26.5 µM
TGI [27]: 66.3 µM
TGI [28]: 48.1 µM
TGI [29]: 84.9 µM
TGI [30]: > 100 µM
TGI [31]: > 100 µM
TGI [32]: 84.5 µM
TGI [33]: > 100 µM
TGI [34]: 35.1 µM
TGI [35]: 56.1 µM
TGI [36]: > 100 µM
TGI [37]: 42.3 µM
TGI [38]: 53.2 µM
TGI [39]: 77 µM
TGI [40]: 77.3 µM
TGI [41]: > 100 µM
TGI [42]: 53.1 µM
TGI [43]: > 100 µM
TGI [44]: 43.5 µM
TGI [45]: 83.5 µM
TGI [46]: 31.5 µM
TGI [47]: 54 µM

Cc1ncc([N+](=O)[O-])n1CCNC(=O)CCCn1ccnc1[N+](=O)[O-]
TGI [1]: > 100 µM
TGI [2]: > 100 µM
TGI [3]: > 100 µM
TGI [4]: > 100 µM
TGI [5]: > 100 µM
TGI [48]: > 100 µM
TGI [6]: > 100 µM
TGI [49]: > 100 µM
TGI [7]: > 100 µM
TGI [50]: > 100 µM
TGI [8]: > 100 µM
TGI [9]: > 100 µM
TGI [51]: > 100 µM
TGI [10]: > 100 µM
TGI [11]: > 100 µM
TGI [52]: > 100 µM
TGI [12]: > 100 µM
TGI [13]: > 100 µM
TGI [14]: > 100 µM
TGI [53]: > 100 µM
TGI [15]: > 100 µM
TGI [16]: > 100 µM
TGI [17]: > 100 µM
TGI [18]: > 100 µM
TGI [19]: > 100 µM
TGI [20]: > 100 µM
TGI [21]: > 100 µM
TGI [22]: > 100 µM
TGI [23]: > 100 µM
TGI [24]: > 100 µM
TGI [25]: > 100 µM
TGI [27]: > 100 µM
TGI [28]: > 100 µM
TGI [29]: > 100 µM
TGI [30]: > 100 µM
TGI [31]: > 100 µM
TGI [32]: > 100 µM
TGI [54]: > 100 µM
TGI [33]: > 100 µM
TGI [55]: > 100 µM
TGI [56]: > 100 µM
TGI [34]: > 100 µM
TGI [35]: > 100 µM
TGI [36]: > 100 µM
TGI [37]: > 100 µM
TGI [38]: > 100 µM
TGI [39]: > 100 µM
TGI [40]: > 100 µM
TGI [41]: > 100 µM
TGI [42]: > 100 µM
TGI [43]: > 100 µM
TGI [44]: > 100 µM
TGI [45]: > 100 µM
TGI [46]: > 100 µM
TGI [47]: > 100 µM

O=C(c1cc(Cl)ccc1Cl)N1CCN(c2cccc(Cl)c2)CC1
TGI [1]: 34 µM
TGI [2]: 34.8 µM
TGI [3]: 42.6 µM
TGI [4]: 76.5 µM
TGI [5]: 23.1 µM
TGI [48]: > 100 µM
TGI [6]: 59.7 µM
TGI [7]: > 100 µM
TGI [50]: 96.5 µM
TGI [8]: 39.5 µM
TGI [9]: 24.1 µM
TGI [51]: > 100 µM
TGI [10]: > 100 µM
TGI [11]: 61.5 µM
TGI [52]: 65.8 µM
TGI [12]: 27.1 µM
TGI [13]: 56.8 µM
TGI [14]: 16.2 µM
TGI [53]: 20 µM
TGI [15]: 25.5 µM
TGI [16]: > 100 µM
TGI [17]: 28.6 µM
TGI [18]: > 100 µM
TGI [19]: 20.3 µM
TGI [21]: 5.62 µM
TGI [22]: 37 µM
TGI [23]: 42.6 µM
TGI [24]: > 100 µM
TGI [25]: 31.5 µM
TGI [26]: 30.4 µM
TGI [27]: 38 µM
TGI [28]: > 100 µM
TGI [29]: > 100 µM
TGI [30]: 38.9 µM
TGI [31]: 6.22 µM
TGI [32]: > 100 µM
TGI [54]: 27.5 µM
TGI [33]: > 100 µM
TGI [55]: 25.6 µM
TGI [56]: 31.4 µM
TGI [35]: 81.9 µM
TGI [36]: 19.3 µM
TGI [37]: 20.2 µM
TGI [38]: > 100 µM
TGI [39]: > 100 µM
TGI [40]: > 100 µM
TGI [41]: 94.8 µM
TGI [42]: > 100 µM
TGI [43]: > 100 µM
TGI [44]: 62 µM
TGI [45]: 50.3 µM
TGI [47]: 58.9 µM
